# Reference: patent publication US20260232639A1, “COMPOUNDS FOR USE IN THE TREATMENT OF SCHIZOPHRENIA” (ONTRACK THERAPEUTICS LIMITED, priority 2023, published 2026)
# Experiments:
# SNAP25 = assay: Simple Western of synaptic marker SNAP25 in prefrontal cortex of scPCP-treated rats; format: in vivo, rat; conditions: 21-day treatment; for SNAP25 levels in the total prefrontal cortex (FIG. 18): Example 3, vs scPCP; for scPCP-induced loss of SNAP25, relative protein level in prefrontal cortex (FIG. 21): Example 4
# Experimental: (§1) Remaining ½ brains (remaining hemispheres) were processed for protein analysis of BDNF using ELISA (quantified in the prefrontal cortex and the dorsal hippocampus) and synaptic markers using Simple Western (quantified in the prefrontal cortex).
# (§2) Prefrontal Cortex and dorsal hippocampus were dissected from the frozen brain and homogenised on ice in a 10-fold volume (mg:μL) of buffer (10 mM Trizma base, Sigma-Aldrich; […] sucrose, Sigma-Aldrich; 2 mM EDTA, Sigma-Aldrich; and protease- and phosphatase-inhibitor cocktails, Sigma-Aldrich) buffered to a pH of 7.4. Phenylmethylsulfonyl fluoride (PMSF) and sodium orthovanadate were added to the solution at a 1% (v/v) concentration. Samples were centrifuged at 800×g for 15 minutes at 4° C. The supernatant was collected and centrifuged at 11,700×g for 20 minutes, and the resulting supernatant was collected and stored at −20° C. until analysis.
# Protein concentrations of each sample were calculated using a Bradford Assay. Samples were diluted into protein assay dye reagent concentrate (BioRad) and compared to bovine serum albumin (Sigma) of known concentration (1.0-0.1 mg/ml protein). A standard curve was created using a simple linear regression. Standards and samples were run in triplicate. An outlying value from a triplicate was removed if the CV value was greater than 10%.
# A WES plate was prepared following the provided instructions (SM-W004, ProteinSimple). Diluted samples were mixed with dithiothreitol and fluorescent master mix in an 8:1:1 ratio. Samples were denatured at 95° C. for five minutes. The samples, antibody diluent, primary antibody, secondary antibody and luminol-peroxide mix were loaded into appropriate wells. A biotinylated ladder, antibody diluent, streptavidin-HRP and luminol peroxide were also loaded. After brief centrifugation of the plate, wash buffer was added. The plate was then placed into the WES machine, whereby the load separation matrix is aspirated, and stacking matrix drawn up into each capillary. […] Finally, the chemiluminescent substrate was added into the capillaries, and the camera detected the levels of chemiluminescence at 9 different timepoints (1-512 seconds). The software then calculated the high dynamic range (HDR) of the peaks, which is calculated from the individual exposures and provides the largest dynamic range of the signal with the lowest background. The HDR peak is then used to calculate the area under the curve, which is analogous to the quantity of protein in the sample. […]
# (§3) BDNF and synaptic markers were analysed using a one-way ANOVA followed by planned post hoc analysis to investigate differences between treatment groups for Prefrontal Cortex (BDNF & Synaptic markers) and Dorsal Hippocampus (BDNF) respectively.
# scPCP treated rats [1] = assay: Social interaction test in sub-chronic PCP treated rats; conditions: for Object exploration duration, inanimate object (FIG. 10): 21-day test article 10 & 30 mg/kg p.o.
# parvalbumin interneurons = assay: Parvalbumin immunohistochemistry in brains of scPCP-treated rats; format: in vivo, rat; conditions: 21-day treatment, 30 mg/kg p.o.
# Experimental: Animals were culled by increasing concentration of carbon dioxide and death was confirmed by cervical dislocation. Brains were removed, frozen on dry ice and stored at −80° C. until analysis.
# ½ brains (one hemisphere) were randomly selected and processed for parvalbumin immunohistochemistry (IHC), quantified in the prefrontal cortex and dorsal hippocampus.
# Sections (30 μm thickness) were washed in 1× PBS three times for five minutes each. Sections underwent heat-induced antigen retrieval in sodium citrate buffer (0.294% (w/v) sodium citrate, 0.07% (v/v) tween-20, 500 ml distilled water, pH adjusted to 6.0) for 30 minutes at 80° C. Unless otherwise stated, samples were washed twice in 1× PBS between each step.
# Parvalbumin (PV) sections were processed for light microscopy. […]
# Images were acquired on a 3D-Histech Pannoramic-250 microscope slide-scanner using a 20×/0.80 Plan Apochromat objective (Zeiss). […] For PV images, the region of interest was delineated, and the number of cell detections were manually counted within the CaseViewer software. Density was calculated by dividing the number of positive cell detections by the area of the region of interest.
# Parvalbumin density in the Prefrontal Cortex and Dorsal Hippocampus were analysed using a repeated measure two-way ANOVA with region and treatment as fixed factors. […]
# PSD95 = assay: Simple Western of synaptic marker PSD95 in prefrontal cortex of scPCP-treated rats; format: in vivo, rat; conditions: Example 4, 21-day treatment
# Experimental: as §1
# as §2, with “The supernatant was collected and centrifuged at 11,700×g for 20 minutes, and the resulting supernatant was collected and stored at −20° C. until analysis.” left out
# Protein concentrations of each sample were calculated using a Bradford Assay. […]
# A WES plate was prepared following the provided instructions (SM-W004, ProteinSimple). […] Finally, the chemiluminescent substrate was added into the capillaries, and the camera detected the levels of chemiluminescence at 9 different timepoints (1-512 seconds). The software then calculated the high dynamic range (HDR) of the peaks, which is calculated from the individual exposures and provides the largest dynamic range of the signal with the lowest background. The HDR peak is then used to calculate the area under the curve, which is analogous to the quantity of protein in the sample. […]
# scPCP treated rats [2] = assay: Novel object recognition (NOR) test in sub-chronic PCP treated rats; conditions: for Time spent exploring the novel versus familiar object in the retention trial (FIG. 6): 20-day treatment with compound of Formula I 10 & 30 mg/kg p.o.; for Time spent exploring the novel versus familiar object in the retention trial (FIG. 2): compound of Formula I 10 & 30 mg/kg p.o.
# BDNF = BDNF ELISA in brain tissue of scPCP-treated rats; format: in vivo, rat; conditions: Example 4; 21-day treatment; two different protein concentrations
# Experimental: as §1, §2
# Protein concentrations of each sample were calculated using a Bradford Assay. Samples were diluted into protein assay dye reagent concentrate (BioRad) and compared to bovine serum albumin (Sigma) of known concentration (1.0-0.1 mg/ml protein). […]
# as §3
# scPCP treated rats [3] = assay: Attentional set-shifting task (ASST) in sub-chronic PCP treated rats; conditions: for Number of trials to criterion in the EDS phase (FIG. 20): 21-day treatment, compared to scPCP group
# scPCP treated rats [4] = conditions: 7-day treatment; female rats; McLean et al., 2008, 2012; cited from earlier work
# [5] = target: tropomyosin receptor kinase B (TrkB) (Homo sapiens, UniProt Q16620); conditions: known from the art; cited from earlier work
# Chain of tropomyosin receptor kinase B (TrkB) (Q16620 32-822, species assumed): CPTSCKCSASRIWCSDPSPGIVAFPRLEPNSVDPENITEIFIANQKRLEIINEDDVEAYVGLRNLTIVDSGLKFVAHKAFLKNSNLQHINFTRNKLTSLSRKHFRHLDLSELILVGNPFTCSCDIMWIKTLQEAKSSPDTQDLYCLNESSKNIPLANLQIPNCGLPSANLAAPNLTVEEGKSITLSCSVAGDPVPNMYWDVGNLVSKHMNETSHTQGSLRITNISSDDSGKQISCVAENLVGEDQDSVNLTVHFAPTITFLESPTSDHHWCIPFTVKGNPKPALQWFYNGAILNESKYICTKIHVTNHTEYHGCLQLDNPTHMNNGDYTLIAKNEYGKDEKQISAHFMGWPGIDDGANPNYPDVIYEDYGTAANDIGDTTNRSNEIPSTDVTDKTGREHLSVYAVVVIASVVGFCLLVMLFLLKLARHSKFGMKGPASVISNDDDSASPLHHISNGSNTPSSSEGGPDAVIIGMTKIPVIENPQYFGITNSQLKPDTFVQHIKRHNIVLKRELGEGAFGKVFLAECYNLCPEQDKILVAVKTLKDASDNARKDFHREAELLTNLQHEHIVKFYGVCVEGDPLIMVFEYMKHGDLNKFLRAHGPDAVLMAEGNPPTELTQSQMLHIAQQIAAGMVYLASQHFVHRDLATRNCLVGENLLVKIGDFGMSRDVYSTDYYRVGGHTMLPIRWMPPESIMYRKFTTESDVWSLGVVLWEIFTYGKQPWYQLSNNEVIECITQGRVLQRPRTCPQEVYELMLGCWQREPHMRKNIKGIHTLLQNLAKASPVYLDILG
# [6] = acute risperidone 0.1 mg/kg i.p.
# [7] = acute risperidone 0.1 mg/kg i.p., scPCP rats
# [8] = acute treatment, risperidone 0.1 mg/kg i.p., scPCP rats
# [9] = 20-day phase, scPCP rats, acute risperidone 0.1 mg/kg i.p.
# [10] = acute phase, scPCP rats, risperidone 0.1 mg/kg i.p., 60 min prior to testing
compound,measurement,setting,value
"N#Cc1ccc(-c2cc(=O)c3ccc4[nH]c(C(F)(F)F)nc4c3o2)cc1 [Compound of Formula I, 4-(6-oxo-2-(trifluoromethyl)-3,6-dihydrochromeno[7,8-d]imidazol-8-yl)benzonitrile]",SNAP25 levels in the total prefrontal cortex (FIG. 18),SNAP25; 10 mg/kg p.o.,increased significantly
same,SNAP25 levels in the total prefrontal cortex (FIG. 18),SNAP25; 30 mg/kg p.o.,not
same,"scPCP-induced loss of SNAP25, relative protein level in prefrontal cortex (FIG. 21)",SNAP25; 30 mg/kg p.o.,not
same,"scPCP-induced loss of SNAP25, relative protein level in prefrontal cortex (FIG. 21)",SNAP25; 3 and 10 mg/kg p.o.,significantly alleviated
same,"Object exploration duration, inanimate object (FIG. 10)",scPCP treated rats [1]; [6],no differences
same,"Sniffing duration, social impairment deficit (FIG. 9)","scPCP treated rats [1]; 21-day treatment, 10 & 30 mg/kg p.o.",able to rescue the social impairment deficit in the scPCP treated rats in a dose dependent manner
same,PV cell density in the total prefrontal cortex (FIG. 13),parvalbumin interneurons; compared to scPCP group,significantly increased
same,"PV cell density in subregions of the prefrontal cortex (Cg1, PrL, IL) (FIG. 12)",parvalbumin interneurons; vs scPCP,significantly increased
same,"scPCP-induced loss of PSD95, relative protein level in prefrontal cortex (FIG. 21)",PSD95; 30 mg/kg p.o.,not
same,"scPCP-induced loss of PSD95, relative protein level in prefrontal cortex (FIG. 21)",PSD95; 3 and 10 mg/kg p.o.,significantly alleviated
same,Time spent exploring the novel versus familiar object in the retention trial (FIG. 6),scPCP treated rats [2]; [7],dose dependent statistically significant effect
same,Discrimination index (DI) (FIG. 7),"scPCP treated rats [2]; 20-day treatment, 30 mg/kg p.o., compared to scPCP animals without treatment",statistically significant increase
same,Time spent exploring the novel versus familiar object in the retention trial (FIG. 2),scPCP treated rats [2]; [8],not shown to have a difference
same,Concentration of BDNF in the dorsal hippocampus (FIG. 22),BDNF,increase the level of BDNF back to that of vehicle treated animals
same,Number of trials to criterion in the EDS phase (FIG. 20),scPCP treated rats [3]; 3 mg/kg p.o.,No significant reduction
same,Number of trials to criterion in the EDS phase (FIG. 20),scPCP treated rats [3]; 10 mg/kg p.o.,near significant reductions
same,Number of trials to criterion in the EDS phase (FIG. 20),scPCP treated rats [3]; 30 mg/kg p.o.,significant reductions
O=C(CCCN1CCC(O)(c2ccc(Cl)cc2)CC1)c1ccc(F)cc1 [haloperidol],Reversal of scPCP deficit in the extra-dimensional shift,scPCP treated rats [4],not
"Cc1nc2n(c(=O)c1CCN1CCC(c3noc4cc(F)ccc34)CC1)CCCC2 [Risperidone, risperidone]","Object exploration duration, inanimate object (FIG. 10)",scPCP treated rats [1]; [6],no differences
same,Sniffing duration (FIG. 9),"scPCP treated rats [1]; acute risperidone 0.1 mg/kg i.p., 60 min prior to testing",increase the amount of time the rat spent sniffing to a similar level as that observed by the higher dose of test article
same,Reversal of scPCP deficit in the extra-dimensional shift,scPCP treated rats [4],reversed
same,Acquisition total exploration time,scPCP treated rats [2]; [9],25.5 ± 3.4 s
same,Retention total exploration time,scPCP treated rats [2]; [9],17.8 ± 1.1 s
same,Time spent exploring the novel versus familiar object in the retention trial (FIG. 6),scPCP treated rats [2]; [7],statistically significant increase
same,Acquisition total exploration time,scPCP treated rats [2]; [10],22.81 ± 4.03 s
same,Retention total exploration time,scPCP treated rats [2]; [10],23.10 ± 2.92 s
same,Time spent exploring the novel versus familiar object in the retention trial (FIG. 2),scPCP treated rats [2]; [8],statistically significant increase
same,Discrimination index (DI) (FIG. 3),scPCP treated rats [2]; [8],higher discrimination index (DI) than those without treatment
same,scPCP-induced deficit in the EDS phase (FIG. 20),scPCP treated rats [3]; [6],significantly (P<0.01) reversed
"O=c1cc(-c2ccccc2)oc2c(O)c(O)ccc12 [tropoflavin, 7,8-dihydroxyflavone]",Agonism of TrkB,[5],potent and selective agonist
